Reference: patent US20250051578A1, “RHODAMINE-METHYLENE BLUE DERIVATIVE FLUORESCENT PROBE AND PREPARATION METHOD AND APPLICATION THEREOF” (Henan Polytechnic University, priority 2023, published 2025)
Entries after “also recorded” stand apart in the source; their conditions may differ.

Tested on: Raw246.7 cells
Experiment: Dual-channel confocal fluorescence imaging of ClO^− and ATP in cells
Type: cell-based
Conditions: for fluorescence of the NIR channel (ClO^− level) versus control group / fluorescence of the yellow channel (ATP level) versus control group: Raw246.7 cells incubated with the substance 1 h, then fluorescent probe 1×10^−5 mol/L 30 min
Experimental: After Raw246.7 cells are incubated with relevant steps, fluorescence imaging is performed by an Olympus FV500-IX70 laser confocal microscope, and results of the fluorescence imaging are shown in FIG. 6. Control group (Control): the Raw246.7 cells are incubated with the fluorescent probe (1×10^−5 mol/L) for 30 minutes (min). Oligomycin A (Omy A) group: the Raw246.7 cells are incubated with Omy A (2×10^−5 mol/L) for 1 h and then incubated with the fluorescent probe (1×10^−5 mol/L) for 30 min. Omy A+ATP group: the Raw246.7 cells are incubated with Omy A (2×10^−5 mol/L) for 1 h to obtain incubated cells, the incubated cells are incubated with the ATP (1×10^−3 mol/L) for 1 h and then incubated with the fluorescent probe (1×10^−5 mol/L) for 30 min. N-acetylcysteine (NAC) group: the Raw246.7 cells are incubated with NAC (5×10^−4 mol/L) for 1 h and then incubated with the fluorescent probe (1×10^−5 mol/L) for 30 min. NAC+ClO^− group: the Raw246.7 cells are incubated with NAC (5×10^−4 mol/L) for 1 h to obtain incubated cells, the incubated cells are incubated with ClO^− (2×10^−4 mol/L) for 1 h and then incubated with the fluorescent probe (1×10^−5 mol/L) for 30 min.
After the Raw246.7 cells are incubated with relevant steps, the fluorescence imaging is performed by the Olympus FV500-IX70 laser confocal microscope, and results of the fluorescence imaging are shown in FIG. 7. Control group (Control): the Raw246.7 cells are incubated with the fluorescent probe (1×10^−5 mol/L) for 30 min, and a concentration of glucose (Glu) in a culture media is 5.5×10^−3 mol/L. Lipopolysaccharide (LPS) group: the Raw246.7 cells are incubated with LPS ([…]) for 1 h and then incubated with the fluorescent probe (1×10^−5 mol/L) for 30 min. No Glu group: the Raw246.7 cells are incubated with the fluorescent probe (1×10^−5 mol/L) for 30 min, and no Glu is added to the culture media. High Glu group: the Raw246.7 cells are incubated with the fluorescent probe (1×10^−5 mol/L) for 30 min, and the concentration of Glu in the culture media is 2.5×10^−2 mol/L. Acetaminophen (C8H9NO2, APAP) group: the Raw246.7 cells are incubated with […] for 1 h and then incubated with the fluorescent probe (1×10^−5 mol/L) for 30 min.

| Compound | detection of ClO^− in cells by the probe (Raw246.7 cells, probe 1×10^−5 mol/L 30 min, NIR channel, listed as fluorescent probe) | detection of ATP in cells by the probe (Raw246.7 cells, probe 1×10^−5 mol/L 30 min, yellow channel, listed as fluorescent probe) | fluorescence of the NIR channel (ClO^− level) versus control group | fluorescence of the yellow channel (ATP level) versus control group |
| --- | --- | --- | --- | --- |
| CCN(CC)c1ccc2c(c1)Oc1cc(N(CC)CC)ccc1C21c2ccccc2C(=O)N1CCN1CCN(C(=O)N2c3ccc(N(C)C)cc3Sc3cc(N(C)C)ccc32)CC1 | can detect exogenous ClO^− in cells; also recorded: can detect endogenous ClO^− | can detect exogenous ATP in cells; also recorded: can detect endogenous ATP |  |  |
| CC(=O)Nc1ccc(O)cc1 [APAP, Acetaminophen] |  |  | significantly enhanced | almost non-fluorescent |
| CC(=O)N[C@@H](CS)C(=O)O [NAC, N-acetylcysteine] |  |  | significantly weakened | significantly enhanced |
| CC[C@@H]1/C=C/C=C/C[C@H](C)[C@H](O)[C@](C)(O)C(=O)[C@H](C)[C@@H](O)[C@H](C)C(=O)[C@H](C)[C@@H](O)[C@H](C)/C=C/C(=O)O[C@H]2[C@@H](C)[C@@H](CC1)O[C@@]1(CC[C@@H](C)[C@@H](C[C@H](C)O)O1)[C@@H]2C [Omy A, Oligomycin A] |  |  | significantly enhanced | significantly weakened |
| Lipopolysaccharide [LPS] |  |  | significantly enhanced | significantly weakened |
